The record followed here is patent US8981112B2, “Inhibitors of β-secretase” (Boehringer Ingelheim International GmbH, priority 2012, dated 2015).

The nature of data set [1]: In Vitro Phospholipidosis Assay (Assay 4), Nile red staining. It is filed as cell-based. To be noted: human, first effect concentration, U937 cells, read-out: Phospholipidosis FEC IC50 μM (assay 4). As to the method: In Vitro Phospholipidosis Assay (Assay 4)
The phospholipidogenic potential of test compounds was assayed using the human hematopoetic U937 cell line. The test principle was to analyze the phospholipid content by staining the cells with the fluorescent dye Nile red.
U937 cells were seeded into cell culture plates at 0.5×10^6 cells/mL in RPMI medium containing 10% FBS, 1% DMSO, and 0.005% gentamicin. The cells were then cultivated with or without different concentrations of test compounds for 48 h under standard culture conditions.
For harvesting the cells were centrifuged at 130×g for 4 min and washed once with PBS. Then 2×0.5 mL cell suspension was prepared for non-fixed cell measurement (0.5 mL for propidium iodide (PI) viability measurement and 0.5 mL for Nile red measurement).
The remaining cells were fixed with 3.7% formaldehyde for 30 min. After a further centrifugation step cells were resuspended with 1.3 mL Nile red working solution (1 μg/mL) and incubated for 5 min at rt. The cell suspension was then washed twice with 3 mL PBS and centrifuged with 130×g for 4 min. The supernatant was discarded and the cells were resuspended with 0.5 mL PBS and kept for flow cytometry measurement. For Nile red staining of the 0.5 mL non-fixed cell samples, 50 μL of a ready to use Nile red solution (10 μg/mL) were added per sample. Samples were kept on ice for 5 min. Thereafter, they were washed once with 4 mL PBS (4° C., 250×g for 8 min) and finally resuspended in 400 μL PBS and kept for flow cytometry measurement.
For the viability measurement, 12.5 μL of the ready to use PI solution (10 μg/mL) were added to the 0.5 mL non-fixed cell suspension. After 15 min of incubation on ice, the samples were measured by flow cytometry using a Coulter Epics XL/MCL flow cytometer.
The viability of the cells of each sample was determined by flow cytometry measurement of the PI content at channel 2 (568-590 nm). Cut-off gates for the fluorescence-dependent differentiation between live and dead cells were defined based on the analysis of cell culture medium control samples.
Only samples with a cell viability of >=90% relative to control samples were analyzed for phospholipidosis. For that, each Nile red sample (non-fixed and fixed samples) was measured by flow cytometry at channel 1 (504-541 nm) and channel 4 (660-680 nm).
For each channel, relative Nile red fluorescence intensity of a test sample was calculated compared to control samples and expressed as percentage of control fluorescence intensity. The assessment of the phospholipidogenic potential and the first effect concentration (FEC) of a test compound was done manually based on the fluorescence intensities at both wavelengths for the fixed cells as well as for the non-fixed cells.

For data set [2], the system named is brain amyloid peptides Aβ1-x. As to the kind of experiment: Rat Brain Aβ Lowering Assay (Assay 5). Type of data set: in vivo. The following applies: 3 hrs after dosing. As to the method:
Rat Brain Aβ Lowering Assay (Assay 5)
The animals were sacrificed 3 hrs after dosing, and brains were excised, dissected into cerebellum and left and right cerebra and flash-frozen in liquid nitrogen.
The cerebrum was homogenized (5 volumes per weight) in 20 mM Tris-HCL, pH 8.5, 0.2% Triton-X100 supplemented with protease inhibitors (complete, Roche Applied Science) at 4° C. using a glass Dounce homogenizer. The homogenate was centrifuged at 120,000×g for 60 min at 4° C., and the supernatant was collected and analyzed for Ab1-x using immunoassay with chemiluminescent detection (Meso-Scale Discovery, Rockville, Md. (MSD)).
Streptavidin 96-well plates (MSD) were pre-blocked with 5% Blocker A solution (MSD) for 1 hr at rt on an orbital shaker and washed 4 times with phosphate buffered saline (PBS). The wells were pre-coated with 20 ng/well of biotinylated antibody SIG-39155 (Clone M3.2, specific for amino acids 10-15 of the rodent Aβ) for 1 hr at rt and washed 4 times with PBS. For Aβ1-x analysis, 25 μl of either the cleared brain lysates or Aβ1-40 standards (8-500 pg/ml, with 2× increment) were incubated for 1 hr at rt with constant shaking. The wells were washed 4 times with PBS, and 25 μl of the detection antibody (Sulfo-TAG labeled anti-Aβ40 antibody supplied by MSD) was added and incubated for 1 hr at rt. After 4 washes with PBS, 150 μl of the chemiluminescence detection reagent (Read Buffer T, MSD) was added, and the plate was read on an MSD Sector Imager 6000 instrument. The calibration curve was fit into a non-linear four-parameter regression model, and the Aβ1-x concentrations were calculated for each well containing the cleared brain lysates. The percent of Aβ lowering was calculated based on the difference with the average Aβ concentration obtained for the brains from the animals treated with vehicle alone.

The next data set addresses hERG (Homo sapiens (Human), UniProt Q12809). In words: hERG-Channel Assay (Assay 3), whole-cell patch clamp. It is filed as cell-based. To be noted: human, HEK293 cells stably transfected with hERG, pH 7.4; 10 μM, HEK293 cells transfected with hERG. The source says:
hERG-Channel Assay (Assay 3)
HEK (human embryonic kidney) 293 cells were stably transfected with hERG cDNA.
Cells were superfused with a bath solution containing (mM): NaCl (137), KCl (4.0), MgCl2 (1.0), CaCl2 (1.8), Glucose (10), HEPES (10), pH 7.4 with NaOH. Patch pipettes were made from borosilicate glass tubing using a horizontal puller and filled with pipette solution containing (mM): K-aspartate (130), MgCl2 (5.0), EGTA (5.0), K2ATP (4.0), HEPES (10.0), pH 7.2 with KOH. Resistance of the microelectrodes was in the range between 2 and 5 MΩ.
Membrane currents were recorded using an EPC-10 patch clamp amplifier and PatchMaster software. hERG-mediated membrane currents were recorded at 35° C., using the whole-cell configuration of the patch-clamp technique. Transfected HEK293 cells were clamped at a holding potential of −60 mV and hERG-mediated inactivating tail currents were elicited using a pulse pattern with fixed amplitudes (activation/inactivation: 40 mV for 2000 ms; recovery: −120 mV for 2 ms; ramp to 40 mV in 2 ms; inactivating tail current: 40 mV for 50 ms) repeated at 15 s intervals. During each inter-pulse interval 4 pulses scaled down by a factor of 0.2 were recorded for a P/n leak subtraction procedure. Rs compensation was employed up to a level that safely allowed recording devoid of ringing.
The different concentrations of the test compound were applied sequentially on each of the different cells investigated. A steady state level of baseline current was measured for at least 6 sweeps prior to the application of the first test compound concentration.
The test compound was dissolved in DMSO to yield a master stock solution which was diluted further in DMSO to stock solutions needed for the lower concentrations. Final dilutions in extracellular buffer were prepared freshly from these stocks by a 1:1000 dilution step each before starting the experiments.
Peak current amplitudes were measured 3 ms after the ramp to +40 mV. For baseline and each concentration the peak currents of the three last sweeps before application of the next concentration were averaged. Residual currents (I/I0) were calculated for each cell as the fraction of actual average peak current and average baseline peak current. Results are presented as percent (%) inhibition (1−I/I0)*100% at 10 μM.
Background: hERG is a cardiac potassium channel; its block is linked to QT prolongation.

In data set [3] the test system is production of Abeta1-x peptides in H4 neuroglioma cell line stably expressing human APP. As to the kind of experiment: H4-APPwt Cell-Based Assay (Assay 2), Abeta1-x production. To be noted: H4 neuroglioma cells expressing human APP, Abeta1-x; read-out: H4-APPwt cell IC50 nM (assay 2). As to the method:
H4-APPwt Cell-Based Assay (Assay 2)
Cellular potency of the compounds of the invention was assessed in an assay monitoring production of Abeta1-x peptides in the H4 neuroglioma cell line (ATCC, Cat. #HTB-148) stably expressing human APP, using an immunoassay such as AlphaLISA (PerkinElmer, Cat.# AL288). Tested compounds were dissolved in DMSO and pre-diluted in the culture medium (DMEM containing 10% FBS and 1% penicillin/streptomycin) to achieve twice the final concentration of the compounds in the assay. Equal volumes of the 2× solutions of the tested compounds and cell suspension were added to a 96-well culture plate, so that each well contained ˜10,000 cells in a final volume of 200 μl. Final concentration of DMSO in the assay was 0.2%. The plates were incubated for 5 hrs at 37° C., 5% CO2 to allow cells to attach to the bottom of the wells in the presence of the tested compounds. Then the media was removed and replaced with fresh media containing tested compounds at the same final concentration. The plates were incubated for 18 hrs at 37° C., 5% CO2. Concentrations of Ab1-x were determined using AlphaLISA immunoassay (PerkinElmer, Cat.# AL288) following manufacturer's protocol. Concentrations of Abeta1-x in the wells containing either DMSO or 10 μM beta-secretase inhibitor (BACE inhibitor IV, EMD Bioscience, Cat. #565788) were used as uninhibited and background controls, correspondingly, for calculating percent inhibition values for each well with the tested compounds.

hERG, sequence (Q12809 whole entry): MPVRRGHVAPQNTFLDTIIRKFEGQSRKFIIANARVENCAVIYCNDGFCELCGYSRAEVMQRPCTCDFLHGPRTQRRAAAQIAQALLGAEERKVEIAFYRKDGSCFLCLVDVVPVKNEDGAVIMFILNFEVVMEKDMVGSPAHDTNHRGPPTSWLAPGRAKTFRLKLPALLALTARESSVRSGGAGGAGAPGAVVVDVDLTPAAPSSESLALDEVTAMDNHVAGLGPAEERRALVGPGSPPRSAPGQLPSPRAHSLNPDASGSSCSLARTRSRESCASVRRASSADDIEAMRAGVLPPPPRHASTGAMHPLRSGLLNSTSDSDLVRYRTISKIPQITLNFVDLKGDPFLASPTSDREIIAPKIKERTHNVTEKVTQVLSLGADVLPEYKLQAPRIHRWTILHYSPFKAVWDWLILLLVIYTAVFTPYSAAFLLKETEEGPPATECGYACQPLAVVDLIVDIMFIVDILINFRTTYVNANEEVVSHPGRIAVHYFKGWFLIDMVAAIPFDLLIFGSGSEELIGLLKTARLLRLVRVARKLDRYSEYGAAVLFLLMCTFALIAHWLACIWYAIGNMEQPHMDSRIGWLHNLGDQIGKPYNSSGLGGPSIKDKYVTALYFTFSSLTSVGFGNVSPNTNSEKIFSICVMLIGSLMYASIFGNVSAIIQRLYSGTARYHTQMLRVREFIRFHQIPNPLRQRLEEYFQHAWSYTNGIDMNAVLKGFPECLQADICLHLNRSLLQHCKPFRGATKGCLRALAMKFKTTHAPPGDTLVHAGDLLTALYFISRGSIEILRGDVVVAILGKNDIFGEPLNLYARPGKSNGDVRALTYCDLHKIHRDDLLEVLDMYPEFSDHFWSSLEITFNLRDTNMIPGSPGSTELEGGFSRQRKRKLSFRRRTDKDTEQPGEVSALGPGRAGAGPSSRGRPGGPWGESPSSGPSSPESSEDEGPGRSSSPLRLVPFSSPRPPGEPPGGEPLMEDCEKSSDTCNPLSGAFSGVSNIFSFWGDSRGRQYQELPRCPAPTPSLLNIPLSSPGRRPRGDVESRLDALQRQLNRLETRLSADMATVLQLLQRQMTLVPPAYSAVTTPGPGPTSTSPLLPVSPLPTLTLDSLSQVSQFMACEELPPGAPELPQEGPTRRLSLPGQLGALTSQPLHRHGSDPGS

A word on the IC50: it is the point on the concentration scale where inhibition reaches its midpoint. The inhibition is the drop in the measured response relative to a control, in per cent. As for `CO[C@H]1CC[C@@]2(Cc3ccc(C#N)cc3[C@]23N=C(N)N(Cc2ncccn2)C3=O)C[C@@H]1C` [Example 6], the IC50 at 48 h in data set [1] was determined as 200 µM. Also, the “% Aβ Reduction” value in data set [2] (single oral dose 50 mg/kg) came to 60%. 10 µM produced 35% inhibition on hERG. Also, in data set [3], the IC50 was determined as 1.24 nM.
On to `CO[C@H]1[C@H](C)C[C@@]2(Cc3ccc(C#N)cc3[C@]23N=C(N)N(CC2(C)OCCO2)C3=O)C[C@@H]1C` [Example 20], for which, in data set [1], the half-inhibitory concentration (IC50) at 48 h was greater than 400 µM. Moreover, the “% Aβ Reduction” value in data set [2] (single oral dose 25 mg/kg) was found to be 73%. This compound also gave an inhibition at 10 µM against hERG of 8%. In addition, the IC50 in data set [3] was determined as 0.28 nM.
For `CC[C@@H]1C[C@]2(CC[C@H]1OC)Cc1ccc(C#N)cc1[C@]21N=C(N)N(C[C@H]2COCCO2)C1=O` [Example 28], in data set [1], the IC50 at 48 h is 400 µM. In data set [2] (single oral dose 12.5 mg/kg), the “% Aβ Reduction” value amounted to 30%. The same compound gave an inhibition at 10 µM against hERG of 9%. Further, in data set [3], the IC50 is 0.5 nM.
`CO[C@H]1[C@H](C)C[C@@]2(Cc3ccc(F)cc3[C@]23N=C(N)N(CC2(C)OCCO2)C3=O)C[C@@H]1C` [Example 29]: in data set [1], the concentration for half-maximal inhibition (IC50) at 48 h is 200 µM. The “% Aβ Reduction” value in data set [2] (single oral dose 25 mg/kg) was found to be 78%. For the same compound, the inhibition at 10 µM against hERG came out at 7%. Further, in data set [3], the IC50 was 0.3 nM.
